This note sets out measurements from patent publication US6310095A, “Inhibitors of protein isoprenyl transferases” (University of Pittsburgh, priority 1998, dated 2001).

Structures can show the parent of a compound that is named as a salt.

The first assay concerns the target T1, protein farnesyltransferase (Rattus norvegicus, UniProt Q02293+Q04631).
T1 construct: Rat brain protein farnesyltransferase activity is measured; from tissue; host or cells: rat brain; purified according to Reiss et al., Cell 62:81-88 (1990), steps one through three
Briefly: in vitro inhibition of protein farnesyltransferase (scintillation proximity assay, biotin-K Ras B fragment). Format: biochemical. The following applies: at 1 × 10^-5 M. The essentials: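 Scintillation proximity read-out of farnesylation, using a biotinylated K Ras B fragment (0.1 mM final) in place of biotin-lamin. Enzyme purified from rat brain; results given as % inhibition.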
(Scintillation proximity formats need no separation of bound from free tracer.)
In general, inhibition refers to the relative decrease from the control value, in per cent. As to `CSCC[C@H](NC(=O)c1ccc(NC(=O)CCN)cc1-c1ccccc1)C(=O)O` [Example 750], testing at 10 µM gave an inhibition of 44%.
For `CSCC[C@H](NC(=O)c1ccc(NC(=O)c2cccc(N(C)C)c2)cc1-c1ccccc1)C(=O)O` [Example 752], the inhibition at 10 µM worked out at 58%.
As to `COc1cc(Cl)ccc1C(=O)Nc1ccc(C(=O)N[C@@H](CCSC)C(=O)O)c(-c2ccccc2)c1` [Example 753], the inhibition at 10 µM was found to be 55%.
`COc1ccc(Br)c(C(=O)Nc2ccc(C(=O)N[C@@H](CCSC)C(=O)O)c(-c3ccccc3)c2)c1` [Example 754] showed an inhibition at 10 µM of 40%.
Same read-out and setting: for `COc1cc(I)c(C(=O)Nc2ccc(C(=O)N[C@@H](CCSC)C(=O)O)c(-c3ccccc3)c2)cc1OC` [Example 756] the value was 47%; for `CSCC[C@H](NC(=O)c1ccc(NC(=O)Cc2ccccc2[N+](=O)[O-])cc1-c1ccccc1)C(=O)O` [Example 757], 58%; for `COc1ccc(C(=O)Nc2ccc(C(=O)N[C@@H](CCSC)C(=O)O)c(-c3ccccc3)c2)c(O)c1` [Example 758], 46%.
Same read-out and setting: for `Cc1ccccc1-c1cc(CN(Cc2ccccc2)c2cccnc2)ccc1C(=O)N[C@@H](CCS(C)(=O)=O)C(=O)O` [Example 759, (2S)-2-N-[4-(N-benzyl-N-3-pyridylaminomethyl)-2-(2-methylphenyl)benzoyl]amino-4-methanesulfonylbutanoic acid] the value was 49%.

The assay is the same for the next values; noted with them: at 1 × 10^-6 M.
Consider `CSCC[C@H](NC(=O)c1ccc(CSc2nc(O)cc(Cc3ccccc3)n2)cc1-c1ccccc1C)C(=O)O` [Example 744], for which the “% inhibition of farnesyltransferase” value is recorded as 84%.
In the case of `CSCC[C@H](NC(=O)c1ccc(S(=O)(=O)N(Cc2ccccc2)c2ccccc2)cc1-c1ccccc1C)C(=O)[O-].[Li+]` [Example 768], the “% inhibition of farnesyltransferase” value is 67%.
In the case of `CSCC[C@H](NC(=O)c1ccc(S(=O)(=O)NCCC2CCCCC2)cc1-c1ccccc1C)C(=O)O` [Example 772], the “% inhibition of farnesyltransferase” value is given as 79%.
As for `CSCC[C@H](NC(=O)c1ccc(S(=O)(=O)NC2CCN(Cc3ccccc3)CC2)cc1-c1ccccc1C)C(=O)O` [Example 773], the “% inhibition of farnesyltransferase” value came to 41%.
Consider `CSCC[C@H](NC(=O)c1ccc(S(=O)(=O)NCCN2CCCCC2)cc1-c1ccccc1C)C(=O)O` [Example 774], for which the “% inhibition of farnesyltransferase” value stood at 48%.
Same read-out and setting: for `CSCC[C@H](NC(=O)c1ccc(S(=O)(=O)NCCN2CCOCC2)cc1-c1ccccc1C)C(=O)O` [Example 775] the value was 32%; for `COc1ccc(CCNS(=O)(=O)c2ccc(C(=O)N[C@@H](CCSC)C(=O)O)c(-c3ccccc3C)c2)cc1OC` [Example 776], 36%.

The assay is the same for the next values; noted with them: at 1 × 10^-6 M; read-out: % inhibition of farnesyltransferase.
Take `CSCC[C@H](NC(=O)c1ccc(CN[C@H](CO)Cc2ccccc2)cc1-c1ccccc1C)C(=O)O` [Example 727]: the inhibition at 1 µM is 95%.
In the case of `CNCC(=O)Nc1ccc(C(=O)N[C@@H](CCSC)C(=O)O)c(-c2ccccc2)c1` [Example 749], the inhibition at 1 µM was found to be 84%.
Same read-out and setting: the same measure for `CSCC[C@H](NC(=O)c1ccc(NC(=O)C[C@H]2C[C@@H](C(C)=O)C2(C)C)cc1-c1ccccc1)C(=O)O` [Example 751]: 32%.
For the molecule `CCSC[C@H](CC1CCCCC1)NCc1ccc(C(=O)N[C@@H](CCSC)C(=O)OCOC(=O)C(C)(C)C)c(-c2ccccc2C)c1` [Example 764, hydrochloride salt], the inhibition at 1 µM is 88%.
`CCSC[C@H](CC1CCCCC1)NCc1ccc(C(=O)N(C)[C@@H](CCSC)C(=O)O)c(-c2ccccc2C)c1` [Example 765, lithium salt]: the inhibition at 1 µM is 76%.

Staying with this assay, now noted: at 1 × 10^-7 M.
Regarding `CSCC[C@H](NC(=O)c1ccc(CSC2=NCCS2)cc1-c1ccccc1C)C(=O)O` [Example 730], the “% inhibition of farnesyltransferase” value came to 96%.
In the case of `CSCC[C@H](NC(=O)c1ccc(CSc2nc3ccccc3[nH]2)cc1-c1ccccc1C)C(=O)O` [Example 732], the “% inhibition of farnesyltransferase” value is 84%.
On to `CSCC[C@H](NC(=O)c1ccc(CSc2nc3cc(C)ccc3[nH]2)cc1-c1ccccc1C)C(=O)O` [Example 733], for which the “% inhibition of farnesyltransferase” value stood at 60%.
Same read-out and setting: for `CSCC[C@H](NC(=O)c1ccc(CSc2nnc(N)s2)cc1-c1ccccc1C)C(=O)O` [Example 734] the value was 49%; for `CSCC[C@H](NC(=O)c1ccc(CSc2nnc[nH]2)cc1-c1ccccc1C)C(=O)O` [Example 735], 96%.
Turning to `CSCC[C@H](NC(=O)c1ccc(CSc2ccccc2C(C)C)cc1-c1ccccc1C)C(=O)O` [Example 739], the “% inhibition of farnesyltransferase” value is given as 83%.
`CSCC[C@H](NC(=O)c1ccc(CSc2ccc(F)cc2)cc1-c1ccccc1C)C(=O)O` [Example 740]: the “% inhibition of farnesyltransferase” value is listed as 94%.
On the same count and under the same terms, for `CSCC[C@H](NC(=O)c1ccc(CSc2ccc(C)cc2C)cc1-c1ccccc1C)C(=O)O` [Example 741] the value was 89%; for `CSCC[C@H](NC(=O)c1ccc(CSc2nc(C)cc(C)n2)cc1-c1ccccc1C)C(=O)O` [Example 743], 51%.
In the case of `CSCC[C@H](NC(=O)c1ccc(CSc2nc3ccccc3c(=O)[nH]2)cc1-c1ccccc1C)C(=O)O` [Example 745], the “% inhibition of farnesyltransferase” value turned out to be 93%.
As to `CSCC[C@H](NC(=O)c1ccc(CSc2ncnc3[nH]ncc23)cc1-c1ccccc1C)C(=O)O` [Example 746], the “% inhibition of farnesyltransferase” value was found to be 84%.
As to `CSCC[C@H](NC(=O)c1ccc(CSc2ncnc3[nH]cnc23)cc1-c1ccccc1C)C(=O)O` [Example 747], the “% inhibition of farnesyltransferase” value amounted to 68%.

Still in this assay, the particulars now being: at 1 × 10^-7 M; read-out: % inhibition of farnesyltransferase.
Consider `CSCC[C@H](NC(=O)c1ccc(NC(=O)CN)cc1-c1ccccc1)C(=O)O` [Example 748], for which the inhibition at 0.1 µM amounted to 56%.
On to `CSCC[C@H](NC(=O)c1ccc(CN(c2ccccc2)S(=O)(=O)c2ccccc2)cc1-c1ccccc1C)C(=O)O` [Example 769, N-[4-N-(N-phenyl-N-benzenesulfonylaminomethyl)-2-(2-methylphenyl)benzoyl]methionine lithium salt], for which the inhibition at 0.1 µM amounted to 90%.
As to `CSCC[C@H](NC(=O)c1ccc(CN(c2ccccc2)S(=O)(=O)c2ccc(C)cc2)cc1-c1ccccc1C)C(=O)O` [Example 770, N-[4-N-(N-phenyl-N-toluenesulfonylaminomethyl)-2-(2-methylphenyl)benzoyl]methionine lithium salt], the inhibition at 0.1 µM came to 91%.

Still in this assay, the particulars now being: at 1 × 10^-8 M; read-out: % inhibition of farnesyltransferase.
In the case of `CSCC[C@H](NC(=O)c1ccc(CN(CCC2CCCCC2)C(=O)c2ccccc2)cc1-c1ccccc1C)C(=O)O` [Example 762, N-[4-N-Benzoyl-N-2-cyclohexylethylaminomethyl-2-(2-methylphenyl)benzoyl]methionine lithium salt], the inhibition at 0.01 µM stood at 84%.
With `CSCC[C@H](NC(=O)c1ccc(CN(CCC2CCCCC2)C(=O)OC(C)(C)C)cc1-c1ccccc1C)C(=O)O` [Example 763, N-[4-N-t-Butyloxycarbonyl-N-2-cyclohexylethylaminomethyl-2-(2-methylphenyl)benzoyl]methionine lithium salt], the inhibition at 0.01 µM was determined as 92%.
For `CSCC[C@H](NC(=O)c1ccc(CN[C@H](CSC2CCCCC2)CC2CCCCC2)cc1-c1ccccc1C)C(=O)O` [Example 766, lithium salt], the inhibition at 0.01 µM came out at 95%.
On to `CSCC[C@H](NC(=O)c1ccc(CN[C@H](CSc2ccccc2C)CC2CCCCC2)cc1-c1ccccc1C)C(=O)O` [Example 767, lithium salt], for which the inhibition at 0.01 µM is 97%.
